These results are taken from patent US7803546B2, “Method of screening for sensitivity to kinase inhibitor therapy” (Cedars-Sinai Medical Center, priority 2002, dated 2010).

For data set [1], the system named is IRESSA-resistant (IR) CWR22R tumors. The experiment in a line: Treatment of IRESSA-resistant (IR) CWR22R tumor lines. Particulars: after three weeks of treatment, tumor growth curves.
The subject of data set [2] is non-small cell lung cancer. The experiment in a line: Clinical response to TKI therapy in non-small cell lung cancer patients, correlated with EMP-1 expression. The data set is classed as in vivo, human. As to conditions: NSCLC patients; EMP-1 detectable by TAQMAN. How it is done: The gene expression profiles of IR tumors were analyzed by gene chip analysis, using the gene arrays described in Alon et al., Proc. Natl. Acad. Sci. USA, vol. […] Presence of EMP-1 RNA was assessed with TAQMAN from paraffin samples.

Data set [3] deals with androgen-independent (CWR22R) xenograft tumors. The procedure:
(§1) A control (i.e., no TKI administered) is graphically depicted as well. This experiment was performed in an androgen-independent prostate xenograft model. […] The daily dosing was at the maximally tolerated dosage in the mice.
as §1

For the compound `COc1cc2ncnc(Nc3ccc(F)c(Cl)c3)c2cc1OCCCN1CCOCC1` [IRESSA, Gefitnib], the “Response of serially passaged tumors to IRESSA, generations F0-F3” value in data set [1] is reported as “demonstrated sensitivity”. The “Probability of response to therapy in individuals with EMP-1 expression above threshold” value in data set [2] is recorded as “less than 10%”. Also, the “Tolerability of weekly dosing” value in data set [3] (mouse, in vivo) is on record as “well tolerated”. The “Decrease in tumor volume in this tumor model” value in data set [3] (summary range following IRESSA treatment (covers CWR22 and CWR22R)) is given as 50-70%.
